Experimental data as given in US20240316079A1, “USE OF AKR1C3-ACTIVATED COMPOUND” (OBI PHARMA, INC., priority 2021, published 2024).
Like-named read-outs stand apart in the source and are kept apart here.

Key:
GA6201 PDX = assay: Gastric cancer PDX model GA6201; format: in vivo, mice
Procedure: Anti-tumor activity of 3424 in PDX models was assessed at CrownBio Bioscience (Beijing, China) Inc. using female BALB/c nude mice (6-7 weeks old, Beijing Anikeeper Biotech Co., Ltd, Beijing, China). Tumor fragments (PA1280, GA6201, LU2057 and LU2505) from stock mice inoculated with selected primary human cancer tissues (pancreatic, gastric cancer, and lung) were harvested and used for inoculation into BALB/c nude mice. Each mouse was inoculated subcutaneously for tumor development. Mice were allocated randomly into experimental groups when the average tumor size reached ˜100 mm^3) by using StudyDirector™ Ver 3.1.399.19 (Studylog Systems, Inc., S. San Francisco, CA, USA). Prodrug 3424 was administered IV at the indicated doses with a regimen of Q7D×3. Each group consisted of 5-6 mice. The grouping day was denoted as Day 0. Prodrug 3424 was administrated to the tumor-bearing mice from Day 0 through Days as indicated for each study.

NCI-H1563 = assay: In vitro proliferation assay, NSCLC cell line NCI-H1563; format: cell-based; details: Homo sapiens, 72 hours of drug exposure, read-out: 3424 IC50
Procedure: IC50 was calculated as described above.

A498 xenograft = system: A498 xenograft
Procedure: (§1) Death and observed clinical signs were recorded on the basis of the numbers of animals within each subset.

SNU-16 xenograft = system: SNU-16 xenograft
Procedure: as §1

[1] = 3424 2.5 mg/kg weekly IV for 4 doses

C[C@H](OP(=O)(N1CC1)N1CC1)c1ccc([N+](=O)[O-])c(Oc2cccc(C(=O)N(C)C)c2)c1 [Compound 3424, (S)-1-(3-(3-N,N-dimethylaminocarbonyl)phenoxyl-4-mtrophenyl)-1-ethyl-N,N′-bis(ethylene)phosphoramidate]
TGI (GA6201 PDX; 3424 5 mg/kg i.v. Q7D × 3): 110% | mice remaining tumor free (GA6201 PDX; 3424 5 mg/kg, at the end of the study): 60% | tolerability / body weight loss (GA6201 PDX; GA6201, all tested doses): no body weight loss | IC50 (NCI-H1563): 2.5 nM | TGI (A498 xenograft; [1]): 73% | tolerability / body weight loss during treatment (A498 xenograft; A498 model, data not shown): no significant body weight loss | TGI (SNU-16 xenograft; [1]): 87.8% | TGI (SNU-16 xenograft; 3424 5 mg/kg weekly IV for 4 doses): 96.2% | tolerability / body weight loss during treatment (SNU-16 xenograft; SNU-16 model, data not shown): no significant body weight loss
